Assay results reported in publication doi:10.1101/365908v1 (biorxiv, 2018).

Biological target: T1, human GSDMD (full-length) (Homo sapiens, UniProt P57764)
T1 sequence (P57764 1-484): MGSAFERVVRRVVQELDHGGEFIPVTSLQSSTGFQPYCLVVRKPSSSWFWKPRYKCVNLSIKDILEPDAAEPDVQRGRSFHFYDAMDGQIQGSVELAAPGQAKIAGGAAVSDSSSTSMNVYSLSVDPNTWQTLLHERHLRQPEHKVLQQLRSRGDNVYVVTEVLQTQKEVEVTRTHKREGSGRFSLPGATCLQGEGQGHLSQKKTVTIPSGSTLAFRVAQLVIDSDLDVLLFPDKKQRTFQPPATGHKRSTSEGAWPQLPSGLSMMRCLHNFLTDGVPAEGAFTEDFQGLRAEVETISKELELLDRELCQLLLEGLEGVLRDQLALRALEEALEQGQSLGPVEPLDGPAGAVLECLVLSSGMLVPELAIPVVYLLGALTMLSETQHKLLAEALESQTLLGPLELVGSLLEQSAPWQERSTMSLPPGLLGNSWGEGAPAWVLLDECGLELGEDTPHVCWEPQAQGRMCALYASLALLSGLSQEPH
Test: Tb3+/DPA liposome leakage
Format: biochemical
Details: covalent (Cys191); 1 h preincubation; cleavage by 0.15 µM caspase-11; no Cu(II)

IC50: 300 ± 10 nM
SMILES: CCN(CC)C(=S)SSC(=S)N(CC)CC [C-23, Tetraethylthiuram disulfide]
